According to ChEMBL document CHEMBL1201862, “PubChem BioAssay data set” (2004):
“And” between values parts separate entries of the source, which are not always exact repeats. Identical values can stand only once.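 Cultured in 96-well plates, cells were exposed to test compound for 48 hours across five concentrations. GI50 is the concentration that inhibits growth by half.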 The source made the active and inactive calls. Rule as the data show it: active = GI50 up to about 1.1 µM and inactive = higher.

Assays:
Assay in all cases: DTP human tumour cell line panel, 48 h
[1] = test system: NCI-H23
[2] = test system: SNB-78
[3] = test system: CCRF-CEM
[4] = test system: M19-MEL
[5] = test system: LXFL 529
[6] = test system: HCT-116
[7] = test system: LOX IMVI
[8] = test system: SR
[9] = test system: DU-145
[10] = test system: OVCAR-4
[11] = test system: Malme-3M
[12] = test system: NCI-H460
[13] = test system: HCC 2998
[14] = test system: OVCAR-8
[15] = test system: U-251
[16] = test system: DMS-114
[17] = test system: M14
[18] = test system: SW-620
[19] = test system: SK-MEL-28
[20] = test system: HCT-15

Structure (SMILES) | GI50 [1] | GI50 [2] | GI50 [3] | GI50 [4] | GI50 [5] | GI50 [6] | GI50 [7] | GI50 [8] | GI50 [9] | GI50 [10] | GI50 [11] | GI50 [12] | GI50 [13] | GI50 [14] | GI50 [15] | GI50 [16] | GI50 [17] | GI50 [18] | GI50 [19] | GI50 [20]
Cc1c(Cl)cccc1NC(=O)CC1Sc2ccccc2NC1=O (stereo not given) | 35.9 µM (inactive) and 24 µM (inactive) | 30 µM (inactive) and 48.6 µM (inactive) | 68.4 µM (inactive) and 46.2 µM (inactive) | 46.9 µM (inactive) and 32 µM (inactive) | 45.5 µM (inactive) and 30.1 µM (inactive) | 13.9 µM (inactive) and 15.8 µM (inactive) | 24.8 µM (inactive) and 33.8 µM (inactive) | 6.12 µM (inactive) | 53.7 µM (inactive) | 22 µM (inactive) and 16.5 µM (inactive) | 19.5 µM (inactive) and 18.5 µM (inactive) | 22.4 µM (inactive) and 23.2 µM (inactive) | 14.3 µM (inactive) and 12 µM (inactive) | 16.4 µM (inactive) and 20.8 µM (inactive) | 14.7 µM (inactive) and 17.3 µM (inactive) | 27.3 µM (inactive) and 18.5 µM (inactive) | 32.3 µM (inactive) and 22.6 µM (inactive) | – | – | –
CCCCCCCCCCCCCC(=O)NO | 8.22 µM (inactive) | 19.8 µM (inactive) | 0.158 µM (active) | 24 µM (inactive) | 5.14 µM (inactive) | 8.85 µM (inactive) | 3.99 µM (inactive) | 0.518 µM (active) | 3.35 µM (inactive) | 6.79 µM (inactive) | 32.1 µM (inactive) | 11.8 µM (inactive) | 14.4 µM (inactive) | 12.1 µM (inactive) | 10.7 µM (inactive) | 3.6 µM (inactive) | 15.8 µM (inactive) | 16.3 µM (inactive) | 31.6 µM (inactive) | 3.72 µM
C=C(C)[C@H]1CC[C@@]2(C)C(C1)[C@H](C)CC[C@@H]2O (stereo not given in full) | > 100 µM (inactive) | > 100 µM (inactive) | > 100 µM (inactive) | > 100 µM (inactive) | > 100 µM (inactive) | > 100 µM (inactive) | > 100 µM (inactive) | > 100 µM (inactive) | – | > 100 µM (inactive) | > 100 µM (inactive) | > 100 µM (inactive) | > 100 µM (inactive) | > 100 µM (inactive) | > 100 µM (inactive) | > 100 µM (inactive) | > 100 µM (inactive) | > 100 µM (inactive) | > 100 µM (inactive) | > 100 µM
NC1=C(NC(=O)Cc2ccc(F)cc2)C(=O)c2ccccc2C1=O | 12.2 µM (inactive) | 26.1 µM (inactive) | > 53.5 µM (inactive) | 9.73 µM (inactive) | > 100 µM (inactive) | 32 µM (inactive) | 14.4 µM (inactive) | > 76.4 µM (inactive) | – | > 100 µM (inactive) | 49.5 µM (inactive) | > 82.2 µM (inactive) | > 100 µM (inactive) | 33.1 µM (inactive) | 13.9 µM (inactive) | 16 µM (inactive) | 43.8 µM (inactive) | > 100 µM (inactive) | > 100 µM (inactive) | > 100 µM
Cc1ccc(S(=O)(=O)ON=C2CC(c3ccccc3)N(C)C(c3ccccc3)C2)cc1 (stereo not given) | 25.2 µM (inactive) and 19.9 µM (inactive) | 19.1 µM (inactive) and 23.1 µM (inactive) | 18.5 µM (inactive) and 25.2 µM (inactive) | 20.8 µM (inactive) and 21.7 µM (inactive) | 15.6 µM (inactive) and 16.6 µM (inactive) | 15.9 µM (inactive) and 14.2 µM (inactive) | 13.5 µM (inactive) and 14 µM (inactive) | 16.9 µM (inactive) and 21.5 µM (inactive) | – | 18.7 µM (inactive) and 17.4 µM (inactive) | 25.5 µM (inactive) and 21.1 µM (inactive) | 19.2 µM (inactive) and 20.7 µM (inactive) | 16.6 µM (inactive) | 17.6 µM (inactive) and 16.9 µM (inactive) | 23.3 µM (inactive) and 21.1 µM (inactive) | 14.7 µM (inactive) | 19.4 µM (inactive) and 17.2 µM (inactive) | 17.9 µM (inactive) and 15.5 µM (inactive) | 23.8 µM (inactive) and 22.9 µM (inactive) | 16.7 µM and 18.5 µM
Cn1c(O)c(C(=O)Nc2ccc([N+](=O)[O-])cc2)c(=O)n(C)c1=S | 1.42 µM (inactive) | 2.18 µM (inactive) | 2.38 µM (inactive) | 3.69 µM (inactive) | 3.3 µM (inactive) | 2.26 µM (inactive) | 2.69 µM (inactive) | 3.63 µM (inactive) | 2.02 µM (inactive) | 2.71 µM (inactive) | 2.11 µM (inactive) | 2.82 µM (inactive) | 2.47 µM (inactive) | 2.14 µM (inactive) | 2.23 µM (inactive) | 2.27 µM (inactive) | 3.37 µM (inactive) | 3.49 µM (inactive) | 1.88 µM (inactive) | 2.13 µM
CC1=C(C(=O)Nc2ccccc2)C(c2cc(Cl)cc(Cl)c2)C(C(=O)Nc2ccccc2)=C(C)N1 | 5.37 µM (inactive) | 17.1 µM (inactive) | 3.02 µM (inactive) | 10.4 µM (inactive) | 3.77 µM (inactive) | 9.53 µM (inactive) | 4.79 µM (inactive) | 2.72 µM (inactive) | – | 2.43 µM (inactive) | 14.4 µM (inactive) | 18.6 µM (inactive) | 11.6 µM (inactive) | 10.5 µM (inactive) | 3.33 µM (inactive) | 4.26 µM (inactive) | 12.4 µM (inactive) | 8.28 µM (inactive) | 14.2 µM (inactive) | 1.71 µM
CSc1ccc(C2OC(=O)c3ccccc32)c2ccccc12 (stereo not given) | – | 46.5 µM (inactive) | 54.8 µM (inactive) | > 100 µM (inactive) | 58.3 µM (inactive) | 87.5 µM (inactive) | 88.3 µM (inactive) | 97.1 µM (inactive) | – | 70.5 µM (inactive) | > 100 µM (inactive) | > 100 µM (inactive) | 70.8 µM (inactive) | > 100 µM (inactive) | 37.3 µM (inactive) | 74.3 µM (inactive) | > 100 µM (inactive) | > 100 µM (inactive) | > 100 µM (inactive) | 97.7 µM
Cc1ccccc1-c1c(N)nc(N)nc1C(=O)Nc1nccs1 | > 100 µM (inactive) | > 100 µM (inactive) | > 100 µM (inactive) | > 100 µM (inactive) | > 100 µM (inactive) | > 100 µM (inactive) | > 100 µM (inactive) | > 100 µM (inactive) | – | > 100 µM (inactive) | > 100 µM (inactive) | > 100 µM (inactive) | > 100 µM (inactive) | > 100 µM (inactive) | > 100 µM (inactive) | > 100 µM (inactive) | > 100 µM (inactive) | > 100 µM (inactive) | > 100 µM (inactive) | > 100 µM
CCCCCCCCCCCCCC(=O)O[C@H]1CC[C@H](NC(=O)[C@H](OC)[C@H](O)[C@@H](O)[C@H](O)/C=C/C(C)C)C(=O)NC1 [BENGAMIDE A] | 0.0113 µM (active) | > 10 µM (inactive) | 0.00512 µM (active) | 0.0033 µM (active) | 0.00386 µM (active) | 0.00512 µM (active) | 0.00512 µM (active) | 0.0316 µM (active) | 0.731 µM (active) | 0.0255 µM (active) | 0.0148 µM (active) | 0.00512 µM (active) | 0.117 µM (active) | 0.00828 µM (active) | 0.00705 µM (active) | 0.00512 µM (active) | 0.00601 µM (active) | 0.00512 µM (active) | < 0.0103 µM (active) | 0.299 µM
